# Experimental data from patent US6358942B1, “Phenyloxazolidinones having a c-c bond 4-8 membered heterocyclic rings” (Pharmacia & Upjohn Company, priority 1995, dated 2002).
# Test system: Staphylococcus aureus or Streptococcus species
# Assay: Murine Assay: in vivo antimicrobial activity, survival of mice infected intraperitoneally with bacteria
# Settings: not given
# Experimental: Antimicrobial activity was tested in vivo using the Murine Assay procedure. Groups of female mice (six mice of 18-20 grams each) were injected intraperitoneally with bacteria which were thawed just prior to use and suspended in brain heart infusion with 4% brewers yeast (Staphylococcus aureus) or brain heart infusion (Streptococcus species). Antibiotic treatment at six dose levels per drug was administered one hour and five hours after infection by either oral intubation or subcutaneous routes. Survival was observed daily for six days. ED50 values based on mortality ratios were calculated using probit analysis. The subject compounds are compared against well-known antimicrobials vancomycin and U-100592 as controls. See “Upjohn Oxazolidinone Antibacterial Agent”, posters presented at the 35th Interscience Conference on Antimicrobial Agents and Chemotherapy.
row,Compound,ED50
1,"COC(=O)N1CC=C(c2ccc(N3C[C@H](CNC(C)=O)OC3=O)cc2F)CC1 [Example 57, (S)-(−)-4-[4-[5-[(Acetylamino)methyl]-2-oxo-3-oxazolidinyl]-2-fluorophenyl]-3,6-dihydro-1(2H)-pyridinecarboxylic acid methyl ester]",6.2 mg/kg
2,"COC(=O)N1CC=C(c2ccc(N3C[C@H](CNC(C)=O)OC3=O)cc2)CC1 [Example 62, (S)-(−)-4-[4-[5-[(Acetylamino)methyl]-2-oxo-3-oxazolidinyl]phenyl]-3,6-dihydro-1(2H)-pyridinecarboxylic acid methyl ester]",12 mg/kg
3,"COC(=O)N1CC(c2ccc(N3C[C@H](CNC(C)=O)OC3=O)cc2F)C1 [Example 83, (S)-N-[[3-[3-Fluoro-4-[1-(methoxycarbonyl)-3-azetidinyl]phenyl]-2-oxo-5-oxazolidinyl]methyl]acetamide]",7.5 mg/kg

# Same assay, conditions: Table 2; female mice; treatment 1 h and 5 h after infection, oral intubation or subcutaneous; survival over six days; probit analysis of mortality ratios
row,Compound,ED50
1,"CC(=O)NC[C@H]1CN(c2ccc(C3=CCS(=O)(=O)CC3)cc2)C(=O)O1 [Example 55, (S)-(−)-N-[[3-[4-(3,6-Dihydro-2H-thiopyran-4-yl)phenyl]-2-oxo-5-oxazolidinyl]methyl]acetamide S,S-dioxide]",2.30 mg/kg
2,CC(=O)NC[C@H]1CN(c2ccc(C3=CCN(C=O)CC3)c(F)c2)C(=O)O1 [Example 56],4.40 mg/kg
3,"CC(=O)NC[C@H]1CN(c2ccc(C3=CC[S+]([O-])CC3)c(F)c2)C(=O)O1 (stereo partly drawn) [Example 63, (S)-(−)-N-[[3-[4-(3,6-Dihydro-2H-thiopyran-4-yl)-3-fluoropheny]-2-oxo-5-oxazolidinyl]methyl]acetamide S-oxide]",4.90 mg/kg
4,"CC(=O)NC[C@H]1CN(c2ccc(C3=CC[S+]([O-])CC3)cc2)C(=O)O1 (stereo partly drawn) [Example 64, (S)-(−)-N-[[3-[4-(3 6-Dihydro-2H-thiopyran-4-yl)phenyl]-2-oxo-5-oxazolidinyl]methyl]acetamide S-oxide]",4.60 mg/kg
5,"CC(=O)NC[C@H]1CN(c2ccc(C3=CCCN(C(=O)CO)C3)c(F)c2)C(=O)O1 [Example 71, (S)-N-[[3-[4-[1-(Hydroxyacetyl)-5,6-dihydro-2H-pyridin-3yl]-3-fluoropheny]-2-oxo-5-oxazolidinyl]methyl]acetamide]",13.4 mg/kg
6,(5S)-N-[[3-[3-Fluoro-4-[1-(formyl)-3-pyrrolidinyl]phenyl]-2-oxo-5-oxazolidinyl]methyl] [Example 45],2.80 mg/kg
7,(S)-(−)-N-[[3-[3-Fluoro-4-(dihydrothien-3-yl)-phenyl]-2-oxo-5-oxazolidinyl]methyl]acetamide [Example 67],13.3 mg/kg

# Same assay, conditions: Table 2; female mice; treatment 1 h and 5 h after infection, oral intubation or subcutaneous; survival over six days; probit analysis of mortality ratios; read-out: ED50
row,Compound,ED50
1,"CC(=O)NC[C@H]1CN(c2ccc(C3=CCN(C(=O)COC(C)=O)CC3)cc2)C(=O)O1 [Example 59, (S)-(−)-N-[[2-Oxo-3-[4-[1-[(acetoxy)acetyl]-3,6-dihydro-2H-pyridin-4-yl]phenyl]-5-oxazolidinyl]methyl]acetamide]",4.2 mg/kg
2,"CC(=O)NC[C@H]1CN(c2ccc(C3=CCN(C(=O)CO)CC3)cc2)C(=O)O1 [Example 60, (S)-(−)-N-[[3-[4-[1-(Hydroxyacetyl)-3,6-dihydro-2H-pyridin-4-yl]phenyl]-2-oxo-5-oxazolidinyl]methyl]acetamide]",3.1 mg/kg
3,"CC(=O)NC[C@H]1CN(c2ccc(C3=CCN(C=O)CC3)cc2)C(=O)O1 [Example 61, (S)-(−)-N-[[3-[4-[1-(Formyl)-3,6-dihydro-2H-pyridin-4-yl]phenyl]-2-oxo-5-oxazolidinyl]methyl]acetamide]",6.1 mg/kg
4,"CC(=O)NC[C@H]1CN(c2ccc(C3(F)CCN(C=O)CC3)c(F)c2)C(=O)O1 [Example 74, (S)-(−)-N-[[3-[4-[1-Formyl-4-fluoro-4-piperidinyl]-3-fluorophenyl]-2-oxo-5-oxazolidinyl]methyl]acetamide]",10.3 mg/kg
5,"CC(=O)NC[C@H]1CN(c2ccc(C3=CCN(C(=O)CO)CCC3)c(F)c2)C(=O)O1 [Example 76, (S)-(−)-N-[[3-[4-[1-(Hydroxyacetyl)-2,3,4,7-tetrahydro-1H-azepin-5-yl]-3-fluorophenyl]-2-oxo-5-oxazolidinyl]methyl]acetamide]",> 20 mg/kg
6,"CC(=O)NC[C@H]1CN(c2ccc(C3=CCCN(C(=O)CO)CC3)c(F)c2)C(=O)O1 [Example 78, (S)-(−)-N-[[3-[4-[1-(Hydroxyacetyl)-2,3,6,7-tetrahydro-1H-azepin-4-yl]-3-fluorophenyl]-2-oxo-5-oxazolidinyl]methyl]acetamide]",6 mg/kg
7,"CC(=O)NC[C@H]1CN(c2ccc(C3CN(C=O)C3)c(F)c2)C(=O)O1 [Example 84, (S)-N-[[3-[3-Fluoro-4-[1-(formyl)-3-azetidinyl]phenyl]-2-oxo-5-oxazolidinyl]methyl]acetamide]",6.5 mg/kg

# Test system: not given
# Assay: not given
# Settings: not given
row,Compound,melting point
1,"CC(=O)NC[C@H]1CN(c2ccc(C3=CCCCO3)c(F)c2)C(=O)O1 [Example 80, (S)-N-[[3-[3-Fluoro-4-(3,4-dihydro-2H-pyran-6-yl)phenyl]-2-oxo-5-oxazolidinyl]methyl]acetamide]",161 to 163 °C
